From PubChem BioAssay (NCI)
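A five-concentration, 48-hour dose response in 96-well plates underlies each endpoint, interpolated linearly between surrounding concentrations. TGI is the concentration that stops growth completely.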

How the values were obtained:
Assay in all cases: inhibition of tumour cell growth, NCI panel, 48 h
HCT-15 colon = tested on: HCT-15 colon
HOP-92 NSCLC = tested on: HOP-92 NSCLC
HT29 colon = tested on: HT29 colon
KM12 colon = tested on: KM12 colon
LOX IMVI melanoma = tested on: LOX IMVI melanoma
MALME-3M melanoma = tested on: MALME-3M melanoma
NCI-H226 lung = tested on: NCI-H226 lung
NCI/ADR-RES ovarian = tested on: NCI/ADR-RES ovarian
PC-3 prostate = tested on: PC-3 prostate
SW-620 colon = tested on: SW-620 colon
UO-31 renal = tested on: UO-31 renal

Row | Compound | TGI (HCT-15 colon) | TGI (HOP-92 NSCLC) | TGI (HT29 colon) | TGI (KM12 colon) | TGI (LOX IMVI melanoma) | TGI (MALME-3M melanoma) | TGI (NCI-H226 lung) | TGI (NCI/ADR-RES ovarian) | TGI (PC-3 prostate) | TGI (SW-620 colon) | TGI (UO-31 renal)
1 | CC(C)C(Cl)CC/C(CBr)=C(\Cl)CCl (centres undefined) | 10.4 µM | 7.73 µM | 11.7 µM | 16.4 µM | 1.2 µM | 19.6 µM | 22.2 µM | > 79.1 µM | 23.9 µM | 4.26 µM | 30.8 µM
2 | COc1ccc(NC(C)=O)cc1N1C(=O)/C(=C\c2cc(OC)c(OC)c(OC)c2)S(=O)(=O)C1c1ccccc1 (centres undefined) | > 100 µM | > 100 µM | > 100 µM | > 100 µM | > 100 µM | > 100 µM | > 100 µM | > 100 µM | > 100 µM | > 100 µM | > 100 µM
3 | O=c1[nH]c2ccsc2c(=O)n1COCc1ccccc1 | > 100 µM | > 100 µM | > 100 µM | > 100 µM | > 100 µM | > 100 µM | > 100 µM | > 100 µM | > 100 µM | > 100 µM | > 100 µM
4 | O=C(NN1C(=O)c2ccccc2C1=O)c1ccccc1Nc1ccccc1C(=O)NN1C(=O)c2ccccc2C1=O | > 100 µM | > 100 µM | > 100 µM | > 100 µM | > 100 µM | > 100 µM | > 100 µM | > 100 µM | > 100 µM | > 100 µM | > 100 µM
5 | O=Cc1ccc2c(c1)CC1(C2)Cc2ccc(C=O)cc2C1 | > 46.6 µM | 53.2 µM | 53.6 µM | 60.4 µM | 21.8 µM | 46.1 µM | 62.6 µM | 32.5 µM | 43.3 µM | 39.2 µM | > 50.6 µM
6 | CC(=C(C(=O)O)C(=O)O)c1cc(-c2cccs2)cc(-c2ccc(Cl)cc2)c1O | 37.5 µM | 34.3 µM | 40.5 µM | 24.2 µM | 29.6 µM | 41 µM | > 72.2 µM | 57.2 µM | 28.3 µM | 43.6 µM | 24.5 µM
7 | CO[C@H](c1ccccc1)[C@H](O)[C@](O)(c1ccccc1)P(=O)(OC)OC | > 100 µM | > 100 µM | > 100 µM | > 100 µM | > 100 µM | > 100 µM | > 100 µM | > 100 µM | > 100 µM | > 100 µM | > 100 µM
8 | COC(=O)C(Cc1c[nH]c2ccccc12)NP(=O)(O)OCC1OC(n2cc(F)c(=O)[nH]c2=O)CC1O (centres undefined) | > 100 µM | > 100 µM | > 100 µM | > 100 µM | > 100 µM | > 100 µM | > 100 µM | > 100 µM | > 100 µM | > 100 µM | > 100 µM
9 | CNC(=S)NNC1=NCCCCN1 | > 100 µM | > 100 µM | > 100 µM | > 100 µM | > 100 µM | > 100 µM | > 100 µM | > 100 µM | > 100 µM | > 100 µM | > 100 µM
10 | CC(CCC(=O)O)[C@H]1CCC2[C@H]3C(CC(=O)[C@@]21C)[C@@]1(C)CCC(O)C[C@H]1C[C@@H]3O (some centres undefined) | > 100 µM | > 100 µM | > 100 µM | > 100 µM | > 100 µM | > 100 µM | > 100 µM | > 100 µM | > 100 µM | > 100 µM | > 100 µM
11 | O=C1CCSc2c(cnc3ccccc23)N1 | > 100 µM | > 100 µM | > 100 µM | > 100 µM | > 100 µM | > 100 µM | > 100 µM | > 100 µM | > 100 µM | > 100 µM | > 100 µM
12 | Nc1c(Cl)c([N+](=O)[O-])cc2c1OCCCCO2 | > 100 µM | > 100 µM | > 100 µM | > 100 µM | > 100 µM | > 100 µM | > 100 µM | > 100 µM | > 100 µM | > 100 µM | > 100 µM
13 | O=C(CCCN1CC=C(n2c(=O)[nH]c3ccccc32)CC1)c1cccs1 | > 100 µM | > 100 µM | > 100 µM | > 100 µM | > 100 µM | > 100 µM | > 100 µM | > 100 µM | > 100 µM | > 100 µM | > 100 µM
14 | COc1ccc(C(=O)N2CCN(c3ccc4[nH]c(=O)oc4c3)CC2)cc1 | > 100 µM | > 100 µM | > 100 µM | > 100 µM | > 100 µM | > 100 µM | > 100 µM | > 100 µM | > 100 µM | > 100 µM | > 100 µM
15 | CC(C)=CCC[C@@H](C)C1=C(Nc2ccccc2)C(O)=C(C)C(=O)C1=O | 13.4 µM | 9.9 µM | 15.3 µM | 20.7 µM | 97.1 µM | 19.9 µM | 18.1 µM | 3.96 µM | > 40.5 µM | > 48 µM | 15.5 µM
16 | N#CC(C#N)=C1CCCCc2ccc([N+](=O)[O-])cc21 | > 100 µM | > 100 µM | > 100 µM | > 100 µM | > 100 µM | > 100 µM | > 100 µM | > 100 µM | > 100 µM | > 100 µM | > 100 µM
17 | O=C1NC(Cc2c[nH]c3ccccc23)C(=O)N2C(c3ccccc3)c3[nH]c4ccccc4c3C[C@@H]12 (some centres undefined) | 54.3 µM | 53.7 µM | 48.6 µM | 40 µM | 40.6 µM | 33.7 µM | 88.9 µM | 58.3 µM | 53.8 µM | > 100 µM | 67.3 µM
18 | CC(C)N(c1cc2c(cc1F)c(=O)c(C(=O)O)cn2-c1ccc(N2CCN(C)CC2)cn1)C(C)C | > 100 µM | > 100 µM | > 100 µM | > 100 µM | > 100 µM | > 100 µM | > 100 µM | > 100 µM | > 100 µM | > 100 µM | > 100 µM
19 | NC(=O)NC(=O)c1ccc(NC(=O)CBr)cc1 | 4.56 µM | 4.59 µM | 3.42 µM | 10.1 µM | 2.26 µM | 3.96 µM | 10.2 µM | 7.53 µM | 4.39 µM | 1.74 µM | 2.78 µM
